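Values below derive from 48-hour exposures of cells grown in 96-well plates, with endpoints linearly interpolated between the two concentrations bracketing the appropriate inhibition level. The concentration for 50% growth inhibition is given as GI50. Definition used: TGI = concentration required for complete inhibition of growth.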
Columns and labels:
Assay in all cases: DTP human tumour cell line panel, 48 h
SF-268 CNS = system: SF-268 CNS
EKVX NSCLC = system: EKVX NSCLC
MDA-MB-231 breast = system: MDA-MB-231 breast
RPMI-8226 leukemia = system: RPMI-8226 leukemia
COLO 205 colon = system: COLO 205 colon
HL-60(TB) leukemia = system: HL-60(TB) leukemia
NCI-H23 lung = system: NCI-H23 lung
RXF 393 renal = system: RXF 393 renal
OVCAR-8 ovarian = system: OVCAR-8 ovarian
OVCAR-5 ovarian = system: OVCAR-5 ovarian
IGROV1 ovarian = system: IGROV1 ovarian
HCT-15 colon = system: HCT-15 colon
CAKI-1 renal = system: CAKI-1 renal
K-562 leukemia = system: K-562 leukemia
NCI-H522 lung = system: NCI-H522 lung
OVCAR-4 ovarian = system: OVCAR-4 ovarian
HS 578T breast = system: HS 578T breast
OVCAR-3 ovarian = system: OVCAR-3 ovarian
SF-539 CNS = system: SF-539 CNS
SK-OV-3 ovarian = system: SK-OV-3 ovarian
HCC-2998 colon = system: HCC-2998 colon
SR leukemia = system: SR leukemia
MALME-3M melanoma = system: MALME-3M melanoma
MOLT-4 leukemia = system: MOLT-4 leukemia
786-0 renal = system: 786-0 renal
BT-549 breast = system: BT-549 breast
UACC-257 melanoma = system: UACC-257 melanoma
LOX IMVI melanoma = system: LOX IMVI melanoma
CCRF-CEM leukemia = system: CCRF-CEM leukemia

`CN(C)C(=O)OCc1nc2c(N3CCOCC3)nc(-c3ccccc3)nc2n1C` showed a GI50 (SF-268 CNS) of 1390 nM, a TGI (SF-268 CNS) of 2770 nM and a GI50 (EKVX NSCLC) of 1440 nM. For the same molecule, the TGI (EKVX NSCLC) was 2950 nM, the GI50 (MDA-MB-231 breast) was 1250 nM and the TGI (MDA-MB-231 breast) was 2620 nM. For the same molecule, the GI50 (RPMI-8226 leukemia) was 189 nM, the TGI (RPMI-8226 leukemia) was 675 nM and the GI50 (COLO 205 colon) was 1320 nM. It also gave a TGI (COLO 205 colon) of 2970 nM, a GI50 (HL-60(TB) leukemia) of 375 nM and a TGI (HL-60(TB) leukemia) of 1960 nM. The GI50 (NCI-H23 lung) was 1620 nM, the TGI (NCI-H23 lung) was 3350 nM and the GI50 (RXF 393 renal) was 566 nM. The TGI (RXF 393 renal) was 1680 nM, the GI50 (OVCAR-8 ovarian) was 1260 nM and the TGI (OVCAR-8 ovarian) was 3240 nM. The GI50 (OVCAR-5 ovarian) was 1600 nM, the TGI (OVCAR-5 ovarian) was 3260 nM and the GI50 (IGROV1 ovarian) was 618 nM. The TGI (IGROV1 ovarian) was 1920 nM, the GI50 (HCT-15 colon) was 220 nM and the TGI (HCT-15 colon) was 561 nM. It also gave a GI50 (CAKI-1 renal) of 450 nM, a TGI (CAKI-1 renal) of 1700 nM and a GI50 (K-562 leukemia) of 332 nM. It also gave a TGI (K-562 leukemia) of 3170 nM, a GI50 (NCI-H522 lung) of 454 nM and a TGI (NCI-H522 lung) of 2020 nM. For the same molecule, the GI50 (OVCAR-4 ovarian) was 790 nM, the TGI (OVCAR-4 ovarian) was 2160 nM and the GI50 (HS 578T breast) was 1420 nM. For the same molecule, the TGI (HS 578T breast) was 4330 nM, the GI50 (OVCAR-3 ovarian) was 203 nM and the TGI (OVCAR-3 ovarian) was 433 nM. For the same molecule, the GI50 (SF-539 CNS) was 1400 nM, the TGI (SF-539 CNS) was 2720 nM and the GI50 (SK-OV-3 ovarian) was 4060 nM. It also gave a TGI (SK-OV-3 ovarian) of 13500 nM, a GI50 (HCC-2998 colon) of 1560 nM and a TGI (HCC-2998 colon) of 3100 nM. It also gave a GI50 (SR leukemia) of 252 nM, a TGI (SR leukemia) of 2980 nM and a GI50 (MALME-3M melanoma) of 1570 nM. It also gave a TGI (MALME-3M melanoma) of 2960 nM, a GI50 (MOLT-4 leukemia) of 497 nM and a TGI (MOLT-4 leukemia) of 3140 nM. It also gave a GI50 (786-0 renal) of 892 nM, a TGI (786-0 renal) of 2310 nM and a GI50 (BT-549 breast) of 1040 nM. For the same molecule, the TGI (BT-549 breast) was 2320 nM, the GI50 (UACC-257 melanoma) was 1360 nM and the TGI (UACC-257 melanoma) was 2930 nM. It also gave a GI50 (LOX IMVI melanoma) of 183 nM, a TGI (LOX IMVI melanoma) of 402 nM and a GI50 (CCRF-CEM leukemia) of 273 nM. It also gave a TGI (CCRF-CEM leukemia) of 1550 nM.
